The source of these data is US20210255193A1, “LYSINE REACTIVE PROBES AND USES THEREOF” (The Scripps Research Institute, priority 2017, published 2021).

Experiment in all cases: competitive isoTOP-ABPP
Common to all, as to type: binding

Test [1] deals with T1, MAP2K3 Dual specificity mitogen-activated protein kinase (Homo sapiens, UniProt P46734).
T1 construct: isoTOP-ABPP experiments performed in cell lysates (in vitro); endogenous in cells; host or cells: soluble proteome of human cancer cell lines (MDA-MB-231; Ramos and Jurkat also prepared)
T1 sequence (P46734 1-347): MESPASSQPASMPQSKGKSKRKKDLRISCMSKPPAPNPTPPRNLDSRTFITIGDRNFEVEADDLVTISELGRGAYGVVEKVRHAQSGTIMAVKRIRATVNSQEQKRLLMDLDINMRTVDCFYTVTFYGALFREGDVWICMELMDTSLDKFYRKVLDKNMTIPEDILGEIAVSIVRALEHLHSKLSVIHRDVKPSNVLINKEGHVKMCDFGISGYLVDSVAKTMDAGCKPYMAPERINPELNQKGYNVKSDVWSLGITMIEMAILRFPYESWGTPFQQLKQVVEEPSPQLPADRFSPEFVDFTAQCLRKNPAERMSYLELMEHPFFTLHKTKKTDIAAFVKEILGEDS
As to conditions: 50 uM, 231 sol, in vitro; for R value (DMSO/fragment) for probe 1 labeling: P46734_K93. A digest of the protocol:
(§1)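 Lysate + fragment (50 μM activated ester / 100 μM guanidinylating agent) or DMSO → 0.1 mM STP-alkyne, 1 h, RT → CuAAC to TEV tags (compound light, DMSO heavy) → LC-MS. R = heavy/light MS1 area; liganded lysine if R≥4.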

Test [2] concerns the target T2, MTOR Serine/threonine-protein kinase mTOR (Homo sapiens, UniProt P42345).
T2 construct: isoTOP-ABPP experiments performed in cell lysates (in vitro); endogenous in cells; host or cells: soluble proteome of human cancer cell lines (MDA-MB-231; Ramos and Jurkat also prepared)
As to conditions: 50 uM, 231 sol, in vitro; for R value (DMSO/fragment) for probe 1 labeling: P42345_K2066. The gist of the method:
as §1

Test [3] addresses T3, RPL10 60S ribosomal protein L10 (Homo sapiens, UniProt P27635).
T3 construct: isoTOP-ABPP experiments performed in cell lysates (in vitro); endogenous in cells; host or cells: soluble proteome of human cancer cell lines (MDA-MB-231; Ramos and Jurkat also prepared)
As to conditions: 50 uM, 231 sol, in vitro. A digest of the protocol: as §1

Test [4] deals with T4, DYNC1H1 Cytoplasmic dynein 1 heavy chain 1 (Homo sapiens, UniProt Q14204).
T4 construct: isoTOP-ABPP experiments performed in cell lysates (in vitro); endogenous in cells; host or cells: soluble proteome of human cancer cell lines (MDA-MB-231, Ramos, Jurkat)
T4 sequence (Q14204 whole entry): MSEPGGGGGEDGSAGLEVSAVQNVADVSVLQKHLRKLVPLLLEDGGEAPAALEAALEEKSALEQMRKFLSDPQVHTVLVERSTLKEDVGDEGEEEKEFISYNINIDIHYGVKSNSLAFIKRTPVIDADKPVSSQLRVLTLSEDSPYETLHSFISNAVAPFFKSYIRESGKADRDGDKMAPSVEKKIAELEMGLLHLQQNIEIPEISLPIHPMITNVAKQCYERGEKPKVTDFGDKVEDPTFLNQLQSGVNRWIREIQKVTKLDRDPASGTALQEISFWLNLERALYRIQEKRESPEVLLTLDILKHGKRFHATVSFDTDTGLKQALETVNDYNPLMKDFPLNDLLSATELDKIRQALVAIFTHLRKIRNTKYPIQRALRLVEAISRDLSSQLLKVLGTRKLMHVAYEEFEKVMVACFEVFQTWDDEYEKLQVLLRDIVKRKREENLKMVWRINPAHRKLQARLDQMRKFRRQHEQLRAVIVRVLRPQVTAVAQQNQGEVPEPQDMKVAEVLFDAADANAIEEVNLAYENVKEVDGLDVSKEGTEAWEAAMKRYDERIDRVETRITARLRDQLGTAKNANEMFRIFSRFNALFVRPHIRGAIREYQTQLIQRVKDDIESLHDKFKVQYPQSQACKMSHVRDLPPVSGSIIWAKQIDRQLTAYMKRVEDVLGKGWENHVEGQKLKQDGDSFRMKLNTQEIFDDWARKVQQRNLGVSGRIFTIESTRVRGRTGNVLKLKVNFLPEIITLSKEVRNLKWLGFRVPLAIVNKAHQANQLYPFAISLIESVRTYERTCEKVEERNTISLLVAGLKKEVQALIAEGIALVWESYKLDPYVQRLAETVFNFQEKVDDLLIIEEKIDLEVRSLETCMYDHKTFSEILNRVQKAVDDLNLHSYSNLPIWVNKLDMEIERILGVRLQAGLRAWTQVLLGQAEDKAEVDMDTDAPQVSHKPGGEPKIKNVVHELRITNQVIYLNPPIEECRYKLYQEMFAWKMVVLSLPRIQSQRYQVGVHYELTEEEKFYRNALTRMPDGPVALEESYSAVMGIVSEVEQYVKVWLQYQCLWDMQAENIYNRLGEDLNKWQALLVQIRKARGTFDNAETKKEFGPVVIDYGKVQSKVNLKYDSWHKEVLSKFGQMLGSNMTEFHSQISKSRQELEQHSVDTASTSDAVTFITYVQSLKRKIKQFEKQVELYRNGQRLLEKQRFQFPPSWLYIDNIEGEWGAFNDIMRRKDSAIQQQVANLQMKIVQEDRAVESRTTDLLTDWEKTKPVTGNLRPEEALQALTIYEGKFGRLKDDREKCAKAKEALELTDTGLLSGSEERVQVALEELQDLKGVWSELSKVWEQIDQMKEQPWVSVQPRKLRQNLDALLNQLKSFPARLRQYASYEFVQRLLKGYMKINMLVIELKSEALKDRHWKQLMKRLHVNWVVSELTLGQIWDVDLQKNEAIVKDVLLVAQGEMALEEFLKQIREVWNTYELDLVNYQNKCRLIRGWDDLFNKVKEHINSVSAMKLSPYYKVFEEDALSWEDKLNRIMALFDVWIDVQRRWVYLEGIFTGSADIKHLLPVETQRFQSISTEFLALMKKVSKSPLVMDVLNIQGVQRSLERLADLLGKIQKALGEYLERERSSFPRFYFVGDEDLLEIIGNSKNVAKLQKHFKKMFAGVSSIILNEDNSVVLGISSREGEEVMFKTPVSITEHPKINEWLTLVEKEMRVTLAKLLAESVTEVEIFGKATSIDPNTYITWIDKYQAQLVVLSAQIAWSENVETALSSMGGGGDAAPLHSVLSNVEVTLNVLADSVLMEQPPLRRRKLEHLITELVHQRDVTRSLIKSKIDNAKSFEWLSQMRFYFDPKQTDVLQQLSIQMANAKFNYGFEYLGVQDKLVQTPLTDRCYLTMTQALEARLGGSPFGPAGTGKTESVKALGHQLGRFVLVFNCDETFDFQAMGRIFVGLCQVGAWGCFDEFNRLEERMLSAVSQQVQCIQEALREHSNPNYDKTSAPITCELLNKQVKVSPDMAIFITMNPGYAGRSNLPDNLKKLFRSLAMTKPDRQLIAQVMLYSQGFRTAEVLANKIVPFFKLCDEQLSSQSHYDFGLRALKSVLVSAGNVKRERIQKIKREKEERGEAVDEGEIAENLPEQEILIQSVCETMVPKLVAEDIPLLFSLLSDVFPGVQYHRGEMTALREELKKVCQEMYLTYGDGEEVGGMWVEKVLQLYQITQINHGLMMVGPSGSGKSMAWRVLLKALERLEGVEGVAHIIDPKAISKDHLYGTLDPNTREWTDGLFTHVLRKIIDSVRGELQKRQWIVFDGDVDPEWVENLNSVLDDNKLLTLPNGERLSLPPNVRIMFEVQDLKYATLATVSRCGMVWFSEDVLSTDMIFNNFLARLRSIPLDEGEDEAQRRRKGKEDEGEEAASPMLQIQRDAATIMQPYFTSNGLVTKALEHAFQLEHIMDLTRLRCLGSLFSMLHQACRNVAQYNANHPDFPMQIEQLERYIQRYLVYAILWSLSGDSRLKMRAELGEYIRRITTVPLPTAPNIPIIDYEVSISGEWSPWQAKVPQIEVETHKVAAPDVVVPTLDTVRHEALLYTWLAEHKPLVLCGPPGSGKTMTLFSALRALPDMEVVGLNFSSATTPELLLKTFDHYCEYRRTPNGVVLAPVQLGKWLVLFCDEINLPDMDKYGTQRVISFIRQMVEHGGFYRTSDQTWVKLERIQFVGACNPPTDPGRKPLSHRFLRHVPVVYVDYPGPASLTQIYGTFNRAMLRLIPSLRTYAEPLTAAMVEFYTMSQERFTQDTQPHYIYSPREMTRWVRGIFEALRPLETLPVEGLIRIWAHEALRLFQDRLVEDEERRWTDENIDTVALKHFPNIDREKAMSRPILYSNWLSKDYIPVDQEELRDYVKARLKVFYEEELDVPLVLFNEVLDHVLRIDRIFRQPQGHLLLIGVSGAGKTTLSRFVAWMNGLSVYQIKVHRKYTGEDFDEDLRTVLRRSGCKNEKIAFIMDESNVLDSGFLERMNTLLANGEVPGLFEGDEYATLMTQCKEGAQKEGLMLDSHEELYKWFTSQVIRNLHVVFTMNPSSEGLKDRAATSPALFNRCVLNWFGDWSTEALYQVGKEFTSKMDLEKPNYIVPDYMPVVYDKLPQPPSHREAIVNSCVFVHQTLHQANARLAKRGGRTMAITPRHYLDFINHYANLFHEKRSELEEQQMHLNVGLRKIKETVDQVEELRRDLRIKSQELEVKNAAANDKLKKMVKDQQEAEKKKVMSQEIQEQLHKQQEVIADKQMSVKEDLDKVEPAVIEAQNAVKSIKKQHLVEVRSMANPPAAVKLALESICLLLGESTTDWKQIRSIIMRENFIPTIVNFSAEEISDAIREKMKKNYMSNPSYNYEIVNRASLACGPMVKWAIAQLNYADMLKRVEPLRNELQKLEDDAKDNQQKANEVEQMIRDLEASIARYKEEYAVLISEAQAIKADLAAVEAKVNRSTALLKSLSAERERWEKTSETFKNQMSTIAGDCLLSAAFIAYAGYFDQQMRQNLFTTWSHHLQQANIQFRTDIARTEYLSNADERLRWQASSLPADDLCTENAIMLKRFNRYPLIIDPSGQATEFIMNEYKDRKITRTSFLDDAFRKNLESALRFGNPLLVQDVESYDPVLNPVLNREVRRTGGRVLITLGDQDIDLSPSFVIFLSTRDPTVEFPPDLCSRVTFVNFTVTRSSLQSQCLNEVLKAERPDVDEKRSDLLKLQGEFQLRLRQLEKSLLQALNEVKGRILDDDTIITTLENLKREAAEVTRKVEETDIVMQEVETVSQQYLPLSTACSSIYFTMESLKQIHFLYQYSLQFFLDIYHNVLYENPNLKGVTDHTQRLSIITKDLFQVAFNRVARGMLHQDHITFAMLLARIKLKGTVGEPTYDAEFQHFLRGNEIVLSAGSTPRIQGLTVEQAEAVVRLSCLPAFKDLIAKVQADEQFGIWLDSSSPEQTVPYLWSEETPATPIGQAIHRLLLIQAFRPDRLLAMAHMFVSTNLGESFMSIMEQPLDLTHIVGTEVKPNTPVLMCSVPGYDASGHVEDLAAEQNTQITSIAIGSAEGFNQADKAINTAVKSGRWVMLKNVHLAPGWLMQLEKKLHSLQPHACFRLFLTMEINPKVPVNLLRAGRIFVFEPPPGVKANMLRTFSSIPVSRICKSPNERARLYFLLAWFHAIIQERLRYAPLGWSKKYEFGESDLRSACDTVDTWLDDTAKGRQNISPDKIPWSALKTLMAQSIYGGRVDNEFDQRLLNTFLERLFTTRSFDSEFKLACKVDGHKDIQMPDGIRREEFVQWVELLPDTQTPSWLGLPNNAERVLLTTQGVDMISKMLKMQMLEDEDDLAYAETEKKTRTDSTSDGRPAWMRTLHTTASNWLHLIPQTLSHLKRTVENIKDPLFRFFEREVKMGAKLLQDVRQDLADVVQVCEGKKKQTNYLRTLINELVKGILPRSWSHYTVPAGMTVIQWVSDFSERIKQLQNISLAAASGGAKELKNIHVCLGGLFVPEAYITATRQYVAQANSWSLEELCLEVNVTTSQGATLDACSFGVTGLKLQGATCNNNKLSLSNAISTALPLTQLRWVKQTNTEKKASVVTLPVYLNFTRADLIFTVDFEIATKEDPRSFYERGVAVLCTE
As to conditions: 50 uM, 231 sol, in vitro; for R value (DMSO/fragment) for probe 1 labeling: Q14204_K1649. A digest of the protocol: as §1

Test [5] deals with T5, MRPS24 28S ribosomal protein S24, mitochondrial (Homo sapiens, UniProt Q96EL2).
T5 construct: isoTOP-ABPP experiments performed in cell lysates (in vitro); endogenous in cells; host or cells: soluble proteome of human cancer cell lines (MDA-MB-231; Ramos and Jurkat also prepared)
As to conditions: 50 uM, 231 sol, in vitro; for R value (DMSO/fragment) for probe 1 labeling: Q96EL2_K94. A digest of the protocol: as §1

In test [6] the target is T6, HNRNPK Heterogeneous nuclear ribonucleoprotein K (Homo sapiens, UniProt P61978).
T6 construct: isoTOP-ABPP experiments performed in cell lysates (in vitro); endogenous in cells; host or cells: soluble proteome of human cancer cell lines (MDA-MB-231, Ramos, Jurkat)
The following applies: 50 uM, 231 sol, in vitro. A digest of the protocol: as §1

Structures are written as SMILES.

Take `Cn1cc(CC(=O)Oc2c(F)c(F)c(F)c(F)c2F)c2ccccc21` [fragment 22, Pentafluorophenyl 2-(1-methyl-1H-indol-3-yl)acetate]: the “R value (DMSO/fragment) for probe 1 labeling” value in test [1] is on record as 0.9; in test [2], 2.8; in test [3] (P27635_K121), 0.9; in test [4] it was 1.1; in test [5] it was 1.6.

For `COc1cc(CCC(=O)Oc2c(F)c(F)c(F)c(F)c2F)cc(OC)c1OC` [fragment 23, Pentafluorophenyl 3-(3,4,5-trimethoxyphenyl)propanoate], the “R value (DMSO/fragment) for probe 1 labeling” value in test [1] worked out at 0.9; in test [2] it was 1.1; in test [4], 1.7; in test [5] it was 2.1.

`O=C(Oc1c(F)c(F)c(F)c(F)c1F)C1CCN(C(=O)OCc2ccccc2)CC1` [fragment 24, 1-Benzyl 4-(pentafluorophenyl) piperidine-1,4-dicarboxylate]: the “isoTOP-ABPP reactivity ratio at lysine P42345_K2066” value in test [2] amounted to 1.0. Further, the “isoTOP-ABPP reactivity ratio at lysine Q14204_K1649” value in test [4] is given as 1.3. In addition, in test [5], the “isoTOP-ABPP reactivity ratio at lysine Q96EL2_K94” value was found to be 1.5.

As for `O=C(Oc1c(F)c(F)c(F)c(F)c1F)c1ccc2ccccc2n1` [fragment 25, Pentafluorophenyl quinoline-2-carboxylate], the “isoTOP-ABPP reactivity ratio at lysine Q14204_K1649” value in test [4] was 1.7. Further, the “isoTOP-ABPP reactivity ratio at lysine Q96EL2_K94” value in test [5] was 1.3. Moreover, the “isoTOP-ABPP reactivity ratio at lysine P61978_K405” value in test [6] is 1.3.

With `O=C(CCc1coc2cc(F)ccc2c1=O)Oc1c(F)c(F)c(F)c(F)c1F` [fragment 26, Pentafluorophenyl 3-(7-fluoro-4-oxo-4H-chromen-3-yl)propanoate], the “isoTOP-ABPP reactivity ratio at lysine P46734_K93” value in test [1] was determined as 1.1. Further, the “isoTOP-ABPP reactivity ratio at lysine P42345_K2066” value in test [2] was 2.8. Also, the “isoTOP-ABPP reactivity ratio at lysine P27635_K121” value in test [3] came out at 0.9. Also, the “isoTOP-ABPP reactivity ratio at lysine Q96EL2_K94” value in test [5] came to 2.7. The “isoTOP-ABPP reactivity ratio at lysine P61978_K405” value in test [6] worked out at 0.9.

Turning to `O=C(CN1C(=O)c2ccccc2C1=O)Oc1c(F)c(F)c(F)c(F)c1F` [fragment 27, Pentafluorophenyl 2-(1,3-dioxoisoindolin-2-yl)acetate], the “isoTOP-ABPP reactivity ratio at lysine P42345_K2066” value in test [2] is listed as 2.5. The “isoTOP-ABPP reactivity ratio at lysine Q14204_K1649” value in test [4] stood at 4.2. The “isoTOP-ABPP reactivity ratio at lysine Q96EL2_K94” value in test [5] turned out to be 2.0. Besides, the “isoTOP-ABPP reactivity ratio at lysine P61978_K405” value in test [6] turned out to be 1.0.

With `CCn1cc(C(=O)Oc2c(F)c(F)c(F)c(F)c2F)c(=O)c2ccc(C)nc21` [fragment 28, Pentafluorophenyl 1-ethyl-7-methyl-4-oxo-1,4-dihydro-1,8-naphthyridine-3-carboxylate], in test [2], the “isoTOP-ABPP reactivity ratio at lysine P42345_K2066” value is recorded as 1.0. In addition, the “isoTOP-ABPP reactivity ratio at lysine Q14204_K1649” value in test [4] is on record as 1.0. Moreover, the “isoTOP-ABPP reactivity ratio at lysine Q96EL2_K94” value in test [5] worked out at 1.0.

In the case of `O=C(Oc1ccc([N+](=O)[O-])cc1[N+](=O)[O-])C(c1ccccc1)c1ccccc1` [fragment 30, 2,4-Dinitrophenyl 2,2-diphenylacetate], in test [1], the “isoTOP-ABPP reactivity ratio at lysine P46734_K93” value is 1.4. The “isoTOP-ABPP reactivity ratio at lysine P42345_K2066” value in test [2] is given as 3.5. Moreover, the “isoTOP-ABPP reactivity ratio at lysine P27635_K121” value in test [3] was 1.1. The “isoTOP-ABPP reactivity ratio at lysine P61978_K405” value in test [6] was found to be 0.9.

Turning to `O=C(Oc1ccc([N+](=O)[O-])cc1[N+](=O)[O-])c1cc(C(F)(F)F)cc(C(F)(F)F)c1` [fragment 31, 2,4-Dinitrophenyl 3,5-bis(trifluoromethyl)benzoate], the “isoTOP-ABPP reactivity ratio at lysine P46734_K93” value in test [1] is given as 1.2. In addition, the “isoTOP-ABPP reactivity ratio at lysine P42345_K2066” value in test [2] worked out at 1.1. The “isoTOP-ABPP reactivity ratio at lysine Q96EL2_K94” value in test [5] is recorded as 1.6.
